Measured values from article PMC10331583, “Control of fibrosis with enhanced safety via asymmetric inhibition of prolyl‐tRNA synthetase 1” (EMBO Molecular Medicine, 2023).
pIC50: −log10 of the molar value. Where “and” joins values, the source holds several entries; their conditions need not be identical. Equal values may be shown once. Read-outs that look alike come from different tables or passages of the source.

Experiments:
WI‐26 VA4 cells [1] = test: Puromycin incorporation assay; format: cell-based, human; settings: for activity at 0.003 µM: WI26VA4, 3 nM; for activity at 0.01 µM: WI26VA4, 10 nM; for activity at 0.03 µM: WI26VA4, 30 nM; for activity at 0.1 µM: WI26VA4, 100 nM; for activity at 0.3 µM: WI26VA4, 300 nM; for activity at 0.5 µM: WI26VA4, 500 nM; for activity at 1 µM: WI26VA4, 1000 nM
Experimental: After being rinsed with cold PBS twice, the cells were collected and resuspended in 200 μl of the carbonate bicarbonate buffer (Sigma Aldrich, C3041‐50CAP) with protease inhibitor. The cell lysates were obtained by sonication and centrifugation at 20,000 g for 15 min at 4°C. After protein quantification using a Pierce™ BCA Protein Assay Kit (Thermo Fisher Scientific, 23225), 400 ng of the proteins was coated to ELISA plates for 18 h at 4°C. […] The plates were rinsed with the washing buffer for three times after each antibody incubation step. […] The amount of puromycin incorporated in proteins was determined by measuring the absorbance at 450 nm (reference wavelength at 620 nm). Experimental values marked in red with strikethrough text in the Figure Source Data file were excluded from the analysis. These values were determined by considering the values of biological and technical replicates under the same condition, as well as the values at the former and later chemical concentrations.

WI‐26 VA4 cells [2] = test: Collagen ELISA (secreted pro‐collagen I)
Experimental: WI‐26 VA4 cells were seeded at 3.5 × 10^4 cells/well on 24 well plates. After 24 h, the cells were starved of serum for 6 h. Then, the cells were incubated with the indicated concentrations of compounds in the presence of TGF‐β (2 ng/ml) (R&D systems, 240‐B‐002) for 72 h. The supernatant of the cells was collected and centrifuged at 500 g for 5 min to remove cell debris. Then, the level of pro‐collagen I in the supernatant was determined using Human Pro‐collagen I alpha 1 DuoSet ELISA (R&D systems, DY6220‐05) and DuoSet ELISA Ancillary Reagent Kit 2 (R&D systems, DY008) following the manufacturer's instructions.

WI‐26 VA4 cells [3] = test: CellTiter‐Glo assay (cytotoxicity); settings: Homo sapiens; for activity at 0.0001 µM: WI26VA4, read-out: CellTiter-Glo % of control, 0.1 nM; for activity at 0.0003 µM: WI26VA4, read-out: CellTiter-Glo % of control, 0.3 nM; for activity at 0.001 µM: WI26VA4, read-out: CellTiter-Glo % of control, 1 nM
[4] = Homo sapiens, read-out: Puromycin, % of control, average
[5] = Homo sapiens, read-out: Puromycin, % of control, single replicate
[6] = log(inhibitor) vs. response, variable slope (four parameters)
[7] = log(inhibitor) vs. response, variable slope (four parameters), concentration in nM

Cc1c(Br)cnc2c1ncn2CC(=O)C[C@H]1NCCC[C@@H]1O [DWN11761]
Puromycin, % of control, single replicate (WI‐26 VA4 cells [1]; 3 nM, 0.003 µM): 104.76 % of control and 100.60 % of control and 105.06 % of control and 105.49 % of control and 105.21 % of control and 111.96 % of control and 104.24 % of control | Puromycin, % of control, single replicate (WI‐26 VA4 cells [1]; 10 nM, 0.01 µM): 99.99 % of control and 99.81 % of control and 108.66 % of control and 104.16 % of control and 106.55 % of control and 105.60 % of control and 106.56 % of control | Puromycin, % of control, single replicate (WI‐26 VA4 cells [1]; 30 nM, 0.03 µM): 101.89 % of control and 99.32 % of control and 110.82 % of control and 110.04 % of control and 108.90 % of control and 103.15 % of control and 106.42 % of control | Puromycin, % of control, single replicate (WI‐26 VA4 cells [1]; 100 nM, 0.1 µM): 112.55 % of control and 117.55 % of control and 127.48 % of control and 125.28 % of control and 125.52 % of control and 127.16 % of control and 126.25 % of control | Puromycin, % of control, single replicate (WI‐26 VA4 cells [1]; 300 nM, 0.3 µM): 109.98 % of control and 112.11 % of control and 119.25 % of control and 120.23 % of control and 124.85 % of control and 125.66 % of control and 106.56 % of control | Puromycin, % of control, single replicate (WI‐26 VA4 cells [1]; 500 nM, 0.5 µM): 54.77 % of control and 53.35 % of control and 56.10 % of control and 56.57 % of control and 57.43 % of control and 59.14 % of control and 54.96 % of control | Puromycin, % of control, single replicate (WI‐26 VA4 cells [1]; 1000 nM, 1 µM): 28.04 % of control and 30.25 % of control and 30.46 % of control and 30.97 % of control and 31.52 % of control and 29.73 % of control and 28.78 % of control | Puromycin, % of control, single replicate (WI‐26 VA4 cells [1]; 3000 nM, 3 µM): 0.34 % of control and -0.19 % of control and -0.45 % of control and 0.86 % of control and 1.02 % of control and 0.90 % of control and 0.51 % of control and -0.71 % of control | Puromycin, % of control, single replicate (WI‐26 VA4 cells [1]; 10000 nM, 10 µM): 0.48 % of control and -0.27 % of control and -0.54 % of control and 1.84 % of control and 0.67 % of control and 0.24 % of control and 0.33 % of control and 0.60 % of control | Puromycin, % of control, single replicate (WI‐26 VA4 cells [1]; 100000 nM, 100 µM): 0.17 % of control and 0.43 % of control and -0.14 % of control and 0.04 % of control and 0.27 % of control and -0.04 % of control and 0.92 % of control and 0.65 % of control | activity at 0.003 µM (WI‐26 VA4 cells [1]; [4]): 105% | activity at 0.003 µM (WI‐26 VA4 cells [1]; [5]): 104% | activity at 0.01 µM (WI‐26 VA4 cells [1]; [4]): 104% | activity at 0.01 µM (WI‐26 VA4 cells [1]; [5]): 101% | activity at 0.03 µM (WI‐26 VA4 cells [1]; [4]): 105% | activity at 0.03 µM (WI‐26 VA4 cells [1]; [5]): 103% | activity at 0.1 µM (WI‐26 VA4 cells [1]; [4]): 122% | activity at 0.1 µM (WI‐26 VA4 cells [1]; [5]): 114% | activity at 0.3 µM (WI‐26 VA4 cells [1]; [4]): 117% | activity at 0.3 µM (WI‐26 VA4 cells [1]; [5]): 115% | activity at 0.5 µM (WI‐26 VA4 cells [1]; [4]): 55.6% | activity at 0.5 µM (WI‐26 VA4 cells [1]; [5]): 52.3% | activity at 1 µM (WI‐26 VA4 cells [1]; [4]): 29.5% | activity at 1 µM (WI‐26 VA4 cells [1]; [5]): 26.2% | activity at 3 µM (WI‐26 VA4 cells [1]; Homo sapiens, WI26VA4, 3000 nM, read-out: Puromycin, % of control, average): 0.29% | activity at 10 µM (WI‐26 VA4 cells [1]; Homo sapiens, WI26VA4, 10000 nM, read-out: Puromycin, % of control, average): 0.42% | activity at 30 µM (WI‐26 VA4 cells [1]; Homo sapiens, WI26VA4, 30000 nM, read-out: Puromycin, % of control, average): -0.13% | activity at 100 µM (WI‐26 VA4 cells [1]; Homo sapiens, WI26VA4, 100000 nM, read-out: Puromycin, % of control, average): 0.29% | pIC50 (WI‐26 VA4 cells [1]; Homo sapiens, WI26VA4, log(inhibitor) vs. response, variable slope (four parameters), read-out: Puromycin, IC50 (best-fit value)): 6.24 | Puromycin, HillSlope (best-fit value) (WI‐26 VA4 cells [1]; [6]): -3.124 | Puromycin, LogIC50 (best-fit value) (WI‐26 VA4 cells [1]; [7]): 2.764 | Collagen, % of control (single replicates per experiment) (WI‐26 VA4 cells [2]; 1 nM, 0.001 µM): 99.09 % of control and 89.14 % of control and 102.78 % of control and 94.15 % of control and 107.84 % of control | Collagen, % of control (single replicates per experiment) (WI‐26 VA4 cells [2]; 3 nM, 0.003 µM): 120.43 % of control and 98.90 % of control and 84.42 % of control and 95.43 % of control and 97.10 % of control and 104.96 % of control | Collagen, % of control (single replicates per experiment) (WI‐26 VA4 cells [2]; 30 nM, 0.03 µM): 79.96 % of control and 82.37 % of control | CC50/collagen IC50 (WI‐26 VA4 cells [2]; Fig 5E): 5.47 | IC50 (WI‐26 VA4 cells [2]; Homo sapiens, WI26VA4, read-out: Collagen IC50 (best-fit value), log(inhibitor) vs. response, variable slope (four parameters) (converted)): 53.7 nM | activity at 0.001 µM (WI‐26 VA4 cells [2]; Homo sapiens, WI26VA4, read-out: Collagen, % of control (single replicates per experiment), 1 nM): 109% | activity at 0.1 µM (WI‐26 VA4 cells [2]; Homo sapiens, WI26VA4, read-out: Collagen, % of control (single replicates per experiment), 100 nM): 20.2% | activity at 0.3 µM (WI‐26 VA4 cells [2]; Homo sapiens, WI26VA4, read-out: Collagen, % of control (single replicates per experiment), 300 nM): 3.63% | activity at 0.001 µM (WI‐26 VA4 cells [2]; Homo sapiens, WI26VA4, read-out: Collagen, % of control, average, 1 nM, average): 100% | activity at 0.003 µM (WI‐26 VA4 cells [2]; Homo sapiens, WI26VA4, read-out: Collagen, % of control, average, 3 nM, average): 100% | activity at 0.01 µM (WI‐26 VA4 cells [2]; Homo sapiens, WI26VA4, read-out: Collagen, % of control, average, 10 nM, average): 101% | activity at 0.03 µM (WI‐26 VA4 cells [2]; Homo sapiens, WI26VA4, read-out: Collagen, % of control, average, 30 nM, average): 80.4% | activity at 0.1 µM (WI‐26 VA4 cells [2]; Homo sapiens, WI26VA4, read-out: Collagen, % of control, average, 100 nM, average): 20.6% | activity at 0.3 µM (WI‐26 VA4 cells [2]; Homo sapiens, WI26VA4, read-out: Collagen, % of control, average, 300 nM, average): 3.18% | activity at 1 µM (WI‐26 VA4 cells [2]; Homo sapiens, WI26VA4, read-out: Collagen, % of control, average, 1000 nM, average): 1.53% | activity at 3 µM (WI‐26 VA4 cells [2]; Homo sapiens, WI26VA4, read-out: Collagen, % of control, average, 3000 nM, average): 1.46% | Collagen HillSlope (best-fit value) (WI‐26 VA4 cells [2]; [6]): -2.337 | Collagen LogIC50 (best-fit value) (WI‐26 VA4 cells [2]; [7]): 1.73 | Relative (CC50)/(collagen IC50) (WI‐26 VA4 cells [2]; relative to HF, Fig 5E): 1.63 | activity at 0.0001 µM (WI‐26 VA4 cells [3]; Experiment #1, replicates): 101% | activity at 0.0001 µM (WI‐26 VA4 cells [3]; Experiment #2, replicates): 95.4% | activity at 0.0003 µM (WI‐26 VA4 cells [3]; Experiment #1, replicates): 110% | activity at 0.0003 µM (WI‐26 VA4 cells [3]; Experiment #2, replicates): 103% | activity at 0.001 µM (WI‐26 VA4 cells [3]; Experiment #1, replicates): 106% | activity at 0.001 µM (WI‐26 VA4 cells [3]; Experiment #2, replicates): 93.8% | activity at 0.003 µM (WI‐26 VA4 cells [3]; WI26VA4, read-out: CellTiter-Glo % of control, 3 nM, Experiment #1, replicates): 100% | activity at 0.01 µM (WI‐26 VA4 cells [3]; WI26VA4, read-out: CellTiter-Glo % of control, 10 nM, Experiment #1, replicates): 104% | activity at 0.03 µM (WI‐26 VA4 cells [3]; WI26VA4, read-out: CellTiter-Glo % of control, 30 nM, Experiment #1, replicates): 94.7% | activity at 0.1 µM (WI‐26 VA4 cells [3]; WI26VA4, read-out: CellTiter-Glo % of control, 100 nM, Experiment #1, replicates): 72.9%
